{"source": "paper PMC10539733", "about": "“Fluorine NMR study of proline-rich sequences using fluoroprolines” (Magnetic resonance, 2021)", "molecules": {"B1": {"name": "non-fluorinated reference peptide (peptide)", "chain": "PPPPPSPPPPPRVYK", "modifications": "Synthetic RAR-gamma-based peptide. Sequence converted from the three-letter residue list in Table 1 (Pro1-5, Ser6, Pro7-11, Arg12-Val13-Tyr14-Lys15), with plain proline at positions 4 and 8. The …"}, "B2": {"name": "MpRS peptide (peptide)", "peptide": "PPP[Pro(trans-4-F)]PSP[Pro(cis-4-F)]PPPRVYK", "notes": "P at 4 and 8 stand for fluoroprolines; source: synthetic peptide (Fmoc solid-phase synthesis, reversed-phase HPLC)"}, "B3": {"name": "MpSR peptide (peptide)", "peptide": "PPP[Pro(cis-4-F)]PSP[Pro(trans-4-F)]PPPRVYK", "notes": "P at 4 and 8 stand for fluoroprolines; Two segments of five prolines separated by one serine, followed by RVYK; source: synthetic peptide (Fmoc solid-phase synthesis, reversed-phase HPLC)"}}, "key": {"[1]": {"biological_target": "T1, Vinexin β SH3.3 domain (Homo sapiens, UniProt O60504)", "T1 construct": "The Vinexin β SH3.3 was obtained using recombinant expression of a glutathione-S-transferase (GST) fusion protein; GST (N, cleaved yes); made in house; host or cells: Escherichia coli (pGEX plasmids)", "T1 sequence (O60504 612-671 limits assumed)": "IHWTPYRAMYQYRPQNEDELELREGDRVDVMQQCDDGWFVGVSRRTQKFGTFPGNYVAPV", "test": "19F line width (apparent transverse relaxation) analysis of binding kinetics during titration", "settings": "fast exchange approximation, 298 K", "experimental": "The exchange line broadening during the titration experiment also reports on the binding kinetics. Thus, the major ^19 F peaks were fitted using a Lorentzian line shape and the line widths obtained in this way provide an estimate of the apparent transverse relaxation constant R2‡ as a function of peptide concentration (Fig. 7b and c), which can be used to derive the binding kinetics. […]\nProcessing of 1D ^19 F spectra and quantification were performed using an open-source Python package dedicated to Fourier spectroscopies called “Spectrometry Processing Innovative Kernel” (SPIKE) (Chiron et al., 2016). […] Line fitting was done using the least-square minimizer of the Scipy optimize toolbox to find the optimal set of the signal parameters minimizing the squared differences between the experimental and calculated spectra. […]\nTitrations were performed by successive addition of stock peptide solutions to a sample of SH3 protein at 314 µM in a 3 mm NMR tube. […] For every titration point, a 1D ^19 F spectrum and a ^1 H– ^15 N HSQC were recorded at 298K on the same spectrometer, taking advantage of the QCI-F probe. The ^1 H– ^15 N HSQC was recorded using the standard pulse sequence and a 3-9-19 WATERGATE water suppression element. The 200 points were recorded in the indirect dimension to achieve a final resolution of 7.0 and 18.8 Hz per point in the acquisition and indirect dimensions, respectively. […]"}, "[2]": {"biological_target": "T1, Vinexin β SH3.3 domain", "test": "NMR titration, 1H-15N HSQC chemical shift perturbations of 15N-labelled SH3 domain", "type": "binding", "experimental": "In order to measure the binding affinities between the Vinexin β SH3.3 domain and the model peptides, a titration experiment was performed where increasing amounts of peptide were added to a solution of ^15 N-labelled SH3 domain. Apart from MpRS and MpSR peptides, a titration was also performed with a non-fluorinated reference peptide. Just as for most SH3–PRM interaction studies, a gradual frequency shift of a subset of ^1 H– ^15 N correlation peaks in the ^1 H– ^15 N HSQC spectra was observed, indicative of fast exchange between bound and free states of the protein (Fig. 6a). Under this exchange regime, the chemical shifts provide an accurate measure of the bound protein fraction, enabling the determination of an equilibrium dissociation constant Kd (vide infra).\nThe MpRS and MpSR peptides were produced by solid-phase synthesis using fluorenylmethyloxycarbonyl (Fmoc) amino acids using a model 431A peptide synthesizer from Applied Biosystems (Foster City, CA, USA). Fmoc-protected (4 R )- and (4 S )-FPro amino acids were purchased from Bachem SA. Peptides were purified by reversed-phase HPLC and checked by electrospray ionization and time of flight mass spectrometry (ESI-TOF). The Vinexin β SH3.3 was obtained using recombinant expression of a glutathione-S-transferase (GST) fusion protein in Escherichia coli using pGEX plasmids (Lalevée et al., 2010). After thrombin cleavage, the protein was purified using size-exclusion chromatography and eluted with phosphate buffer (40 mM phosphate, NaCl 100 mM, DTT 2 mM, pH 7). Before titration experiments, a dialysis was performed using 1 and 3 kDa cut-off membrane for the peptide and the protein, respectively, and a common dialysis bath containing the buffer used in interaction experiments. Protein concentrations were determined by measuring the optical density (OD) at 280 nm (molar absorption coefficient 11 460 M ^-1 cm ^-1 ). Peptide concentrations were measured by ^1 H NMR by comparing the integrals of peptide resonances with those of tryptophan of known concentration in a sample containing small amounts (10–30 µM ) of both compounds in D 2 O as described (Kohler et al., 2015). For assignments, lyophilized powder of MpRS and MpSR peptides were dissolved in 170 µL of D 2 O for a final concentration of 1 mM in 3 mm tubes.\nTitrations were performed by successive addition of stock peptide solutions to a sample of SH3 protein at 314 µM in a 3 mm NMR tube. In order to reduce the dilution of the initial protein solution and keep the aliquot volumes within values compatible with low pipetting errors (1 to 3 µL ), initial aliquots were added using stock solutions diluted by a factor of 2. The concentrations of the stock solutions were 5.1 and 5.7 mM for MpSR and MpRS, respectively. For every titration point, a 1D ^19 F spectrum and a ^1 H– ^15 N HSQC were recorded at 298K on the same spectrometer, taking advantage of the QCI-F probe. The ^1 H– ^15 N HSQC was recorded using the standard pulse sequence and a 3-9-19 WATERGATE water suppression element. The 200 points were recorded in the indirect dimension to achieve a final resolution of 7.0 and 18.8 Hz per point in the acquisition and indirect dimensions, respectively. The relaxation delay was set to 1 s resulting in a total acquisition time of 16 min. The 1D ^19 F spectra were recorded with a spectral width of 22.522 kHz. The number of scans was adapted to achieve a sufficient signal-to-noise ratio for each concentration of peptide. For the first titration point, at a peptide concentration of 50 µM , 1600 scans were recorded for a total acquisition time of 1 h and 6 min, while 250 scans (10 min acquisition time) were used for the large peptide concentrations.\nThe composite chemical shift was calculated using […], where ΔδN and ΔδH are the ^15 N and proton chemical shift differences measured between the free protein and the protein in the presence of a given amount of peptide. […]"}, "[3]": {"biological_target": "T2, Vinexin β SH3.3 domain (third SH3 domain of the Vinexin β protein) (UniProt O60504 612-671)", "T2 construct": "Vinexin β, third SH3 domain (SH3.3); 15N-labelled for the titrations; source: E. coli, GST fusion protein (pGEX plasmids), thrombin cleavage, purified (size-exclusion chromatography)", "T2 sequence (looked up)": "T1 sequence (O60504 612-671 limits assumed)", "test": "NMR titration; same kind of titration, 298 K; only the 1H-15N chemical shift perturbations of the SH3 domain fitted, 1:1 model", "settings": "both partners purified"}, "[4]": {"biological_target": "T2, Vinexin β SH3.3 domain (third SH3 …)", "test": "NMR titration; peptide stock added stepwise to 15N-labelled SH3 at 314 µM in a 3 mm tube, 298 K; 19F shifts of the peptide and 1H/15N shifts of the SH3 fitted simultaneously; 1:1 and 1:2 models compared", "settings": "both partners purified"}, "[5]": {"biological_target": "T2, Vinexin β SH3.3 domain (third SH3 …)", "test": "NMR titration; 19F line widths (apparent R2) of the peptide against peptide concentration during the titration, fast-exchange approximation; kon fitted independently for each 19F signal, Kd taken from the shift fit", "settings": "both partners purified"}}, "note": "Values joined by “and” are separate entries in the source; they are usually repeats but may differ in a detail not shown here. Equal entries are not always repeated. Where two headings read alike, the source gives them in different places. Square brackets hold non-standard residues; d marks the D form. Ends that are not written are not given here. Peptide text beside a SMILES is read from it. Pro(trans-4-F) = O=C(O)[C@@H]1C[C@@H](F)CN1; Pro(cis-4-F) = O=C(O)[C@@H]1C[C@H](F)CN1", "data": [{"molecule": "CC(C)[C@H](NC(=O)[C@H](CCCNC(=N)N)NC(=O)[C@@H]1CCCN1C(=O)[C@@H]1CCCN1C(=O)[C@@H]1CCCN1C(=O)[C@@H]1C[C@@H](F)CN1C(=O)[C@@H]1CCCN1C(=O)[C@H](CO)NC(=O)[C@@H]1CCCN1C(=O)[C@@H]1C[C@H](F)CN1C(=O)[C@@H]1CCCN1C(=O)[C@@H]1CCCN1C(=O)[C@@H]1CCCN1)C(=O)N[C@@H](Cc1ccc(O)cc1)C(=O)N[C@@H](CCCCN)C(=O)O", "note": "[MpSR] (H-PPP[Pro(cis-4-F)]PSP[Pro(trans-4-F)]PPPRVYK-OH)", "values": [{"measurement": "kon", "setting": "[1]; from 19F line widths of (4 R )-FPro8 signal, read-out: association kinetics constant kon, (4 R )-FPro8 signal", "value": "1.2e+08", "unit": "M⁻¹ s⁻¹"}, {"measurement": "kon", "setting": "[1]; from 19F line widths of (4 S )-FPro4 signal, read-out: association kinetics constant kon, (4 S )-FPro4 signal", "value": "9e+07", "unit": "M⁻¹ s⁻¹"}]}, {"molecule": "CC(C)[C@H](NC(=O)[C@H](CCCNC(=N)N)NC(=O)[C@@H]1CCCN1C(=O)[C@@H]1CCCN1C(=O)[C@@H]1CCCN1C(=O)[C@@H]1CCCN1C(=O)[C@@H]1CCCN1C(=O)[C@H](CO)NC(=O)[C@@H]1CCCN1C(=O)[C@@H]1CCCN1C(=O)[C@@H]1CCCN1C(=O)[C@@H]1CCCN1C(=O)[C@@H]1CCCN1)C(=O)N[C@@H](Cc1ccc(O)cc1)C(=O)N[C@@H](CCCCN)C(=O)O", "note": "[non-fluorinated peptide] (H-PPPPPSPPPPPRVYK-OH; N-terminus and C-terminus assumed)", "values": [{"measurement": "1H-15N composite chemical shift perturbation, Asn 15", "setting": "[2]; Vinexin β residue Asn 15", "value": 1.093}, {"measurement": "1H-15N composite chemical shift perturbation, Asp 17", "setting": "[2]; Vinexin β residue Asp 17", "value": 2.276}, {"measurement": "1H-15N composite chemical shift perturbation, Gln 14", "setting": "[2]; Vinexin β residue Gln 14", "value": 1.949}, {"measurement": "1H-15N composite chemical shift perturbation, Gly 49", "setting": "[2]; Vinexin β residue Gly 49", "value": 0.812}, {"measurement": "1H-15N composite chemical shift perturbation, Leu 21", "setting": "[2]; Vinexin β residue Leu 21", "value": 0.988}, {"measurement": "1H-15N composite chemical shift perturbation, Thr 50", "setting": "[2]; Vinexin β residue Thr 50", "value": 1.881}, {"measurement": "1H-15N composite chemical shift perturbation, Trp 37", "setting": "[2]; Vinexin β residue Trp 37", "value": 2.011}, {"measurement": "1H-15N composite chemical shift perturbation, Val 39", "setting": "[2]; Vinexin β residue Val 39", "value": 3.214}, {"measurement": "1H-15N composite chemical shift perturbation, Val 56", "setting": "[2]; Vinexin β residue Val 56", "value": 1.319}]}, {"molecule": "B1", "values": [{"measurement": "Kd", "setting": "[3]", "value": "74 ± 25", "unit": "µM"}]}, {"molecule": "B2", "values": [{"measurement": "Kd", "setting": "[3]", "value": 220, "unit": "µM"}, {"measurement": "Kd", "setting": "[4]", "value": "273 ± 30", "unit": "µM"}, {"measurement": "stoichiometry N", "setting": "[4]", "value": 1}]}, {"molecule": "B3", "values": [{"measurement": "Kd", "setting": "[3]", "value": 75, "unit": "µM"}, {"measurement": "Kd", "setting": "[4]", "value": "96 ± 30", "unit": "µM"}, {"measurement": "stoichiometry N", "setting": "[4]", "value": 1}, {"measurement": "kon", "setting": "[5]", "value": "9e+07 M⁻¹ s⁻¹ and 1.2e+08 M⁻¹ s⁻¹"}]}]}
